According to the NIST ThermoML archive (doi:10.1016/j.fluid.2011.06.012):
Numbers after ± are expanded uncertainties.

Key:
[1] = Molar enthalpy of transition or fusion; conditions: DSC

CCCC[N+]1(C)CCCC1.N#C[S-] [1-butyl-1-methylpyrrolidinium thiocyanate]
[1]
Conditions	Molar enthalpy of transition or fusion [kcal/mol]
Crystal 1	0.491 ± 0.043
Crystal 2	2.07 ± 0.0645

298.15 K, 101.33 kPa, Liquid
Conditions	mass density [kg/m3]	viscosity [mPa·s]
Cone and plate viscometry	–	109.46 ± 2.2
Vibrating tube method	1024.77 ± 2.2	–

Conditions	Normal melting temperature [°C]	Triple point temperature [K]
Crystal 1, DTA	22.2 ± 0.9	–
Crystal 2, DTA	–	245.3 ± 0.4
